Measured values published in patent US20250163043A1 (TRANSTHERA SCIENCES (NANJING), INC., priority 2021, published 2025).

Tests used:
[1] = biological target: CDK9/CycT1 (Homo sapiens, UniProt P50750); experiment: ADP-Glo kinase assay on CDK enzymatic activity, CDK9/CycT1; assay type: biochemical; settings: 10 concentrations from 10 μM, 4-fold, 60 min room temperature
Procedure, shortened: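 Kinase and compound are mixed and held 10 min at room temperature before substrate peptide and ATP start a 60 min reaction. Remaining ATP is depleted with ADP-Glo reagent (40 min), detection reagent is added (40 min), and luminescence gives inhibition rates across ten concentrations from 10 μM, fitted to IC50.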

[2] = system: MV-4-11 (human myelomonocytic leukemia cells); experiment: CCK-8 cell proliferation assay, MV-4-11; assay type: cell-based; settings: MV4-11, 24 h incubation, 11 concentrations from 5000 nM, 3-fold, read-out: MV-4-11 cell proliferation IC50 (class)
Method: Test samples: the compounds of the present invention, having structures shown above.
MV-4-11 (human myelomonocytic leukemia cells) and NCI-H929 (human myeloma cells).
The compounds were dissolved in DMSO and diluted 3-fold in the 96-well plate to obtain stock solutions with 11 concentration gradients. Each cell was inoculated into a 96-well plate, and the diluted compound stock solution was added to the 96-well plate to obtain a series of 11 concentration gradients of compound solutions with final concentrations of 5000 nM starting and 3-fold gradient decreasing, wherein the final DMSO content was […]. There was a medium containing 1‰ DMSO in the negative control well. The treated cells were incubated at 37° C. with 5% CO2 and 95% humidity, wherein MV-4-11 were incubated for 24 h and NCI-H929 for 72 h. After incubation was completed, each well was added with 10 μL of CCK-8 reagent, incubated for 1-3 h at room temperature and placed in the microplate reader, and the absorbance was read at 450 nm.
The inhibition rate was calculated according to the following formula: […]
ODcmpd: compound absorbance; ODpositive: average value of the absorbance of positive control without compound; ODvehicle: average value of the absorbance of solvent vehicle control.
IC50 values were fitted using GraphPad 7.0 based on inhibition rates of compounds at different concentrations.

Sequence of CDK9/CycT1 (P50750 whole entry): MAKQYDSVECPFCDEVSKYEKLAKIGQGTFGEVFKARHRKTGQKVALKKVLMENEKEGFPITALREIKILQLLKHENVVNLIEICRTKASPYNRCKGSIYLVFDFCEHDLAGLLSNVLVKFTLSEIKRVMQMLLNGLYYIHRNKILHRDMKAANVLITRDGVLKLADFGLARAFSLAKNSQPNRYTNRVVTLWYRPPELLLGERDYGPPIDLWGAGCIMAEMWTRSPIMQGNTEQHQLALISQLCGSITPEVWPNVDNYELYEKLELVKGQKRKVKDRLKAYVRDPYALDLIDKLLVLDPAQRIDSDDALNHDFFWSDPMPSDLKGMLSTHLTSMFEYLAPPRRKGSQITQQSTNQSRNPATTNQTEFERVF
Sequence of CDK9/CycT1 (O60563 whole entry partner): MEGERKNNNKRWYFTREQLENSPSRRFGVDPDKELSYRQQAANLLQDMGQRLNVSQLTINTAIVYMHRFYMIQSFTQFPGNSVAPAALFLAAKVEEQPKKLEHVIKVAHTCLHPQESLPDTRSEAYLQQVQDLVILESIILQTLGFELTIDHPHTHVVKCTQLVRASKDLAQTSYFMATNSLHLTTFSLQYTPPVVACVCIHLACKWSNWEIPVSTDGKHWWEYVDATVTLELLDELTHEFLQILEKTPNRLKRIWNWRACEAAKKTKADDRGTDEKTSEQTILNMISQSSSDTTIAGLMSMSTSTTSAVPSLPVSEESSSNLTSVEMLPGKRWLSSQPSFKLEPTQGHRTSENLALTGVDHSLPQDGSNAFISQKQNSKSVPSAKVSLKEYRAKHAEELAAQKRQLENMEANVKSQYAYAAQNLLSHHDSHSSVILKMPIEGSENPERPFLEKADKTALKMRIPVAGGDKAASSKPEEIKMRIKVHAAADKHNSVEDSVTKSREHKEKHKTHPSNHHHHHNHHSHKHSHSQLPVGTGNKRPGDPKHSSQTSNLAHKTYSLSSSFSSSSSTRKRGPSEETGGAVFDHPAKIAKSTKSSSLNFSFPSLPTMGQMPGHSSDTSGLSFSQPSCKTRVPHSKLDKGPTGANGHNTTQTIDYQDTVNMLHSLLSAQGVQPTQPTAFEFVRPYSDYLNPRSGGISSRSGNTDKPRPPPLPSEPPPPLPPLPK

Compound	IC50 [1] [nM]	IC50 [2] [nM]
CC(C)Nc1nc(C#N)cc2cnc(N[C@@H]3CCNC3)nc12 [Compound 113, (R)-8-(isopropylamino)-2-(pyrrolidin-3-ylamino)pyrido[3,4-d]pyrimidine-6-carbonitrile]	9	400 to 1000
CC(C)Cc1nc(C#N)cc2cnc(N[C@H]3CCCNC3)cc12 [Compound 108, (S)-1-isobutyl-7-(piperidin-3-ylamino)-2,6-naphthyridine-3-carbonitrile]		400 to 1000
N#Cc1cc2cnc(N[C@H]3CCCNC3)cc2c(OC2CC2)n1 [Compound 197, (S)-1-cyclopropoxy-7-(piperidin-3-ylamino)-2,6-naphthyridine-3-carbonitrile]	14	> 1000
CC(=O)N[C@@H]1CCC[C@H](C(=O)Nc2ncc3cc(C)nc(NC(C)C)c3n2)C1 [Compound 8, (1S,3R)-3-acetamido-N-(8-(isopropylamino)-6-methylpyrido[3,4-d]pyrimidin-2-yl)cyclohexane-1-carboxamide]		> 1000
CC(C)Nc1nc(C#N)cc2cnc(N[C@@H]3C[C@H]4COC[C@@H](C3)N4)nc12 [Compound 139, 2-(((1R,5S,7r)-3-oxa-9-azabicyclo[3.3.1]nonan-7-yl)amino)-8-(isopropylamino)pyrido[3,4-d]pyrimidine-6-carbonitrile]	6	> 1000
CC(C)(C)Nc1nc(C#N)cc2cnc(NC(=O)[C@@H]3CCCNC3)cc12 [Compound 178, (R)—N-(5-(tert-butylamino)-7-cyano-2,6-naphthyridin-3-yl)piperidine-3-carboxamide]	7	400 to 1000
C[C@]1(N)C[C@H](Nc2cc3c(NC4CC4)nc(C#N)cc3cn2)C1 [Compound 210, 7-((trans)-3-amino-3-methylcyclobutyl)amino-1-(cyclopropylamine)-2,6-naphthyridine-3-carbonitrile]	12	400 to 1000
COc1cc2cnc(NC(=O)[C@H]3CCC[C@@H](NC(C)=O)C3)nc2c(NC(C)C)n1 [Compound 12, (1S,3R)-3-acetamido-N-(8-(isopropylamino)-6-methoxypyrido[3,4-d]pyrimidin-2-yl)cyclohexane-1-carboxamide]		> 1000
CC(C)Nc1nc(C#N)cc2cnc(N[C@]3(C)C[C@@H](O)C3)nc12 [Compound C10, 2-(((1r,3r)-3-hydroxy-1-methylcyclobutyl)amino)-8-(isopropylamino)pyrido[3,4-d]pyrimidine-6-carbonitrile]	8	> 1000
CC(=O)N1CCC[C@H](C(=O)Nc2ncc3cc(C#N)nc(NC(C)C)c3n2)C1 [Compound 6, (S)-1-acetyl-N-(6-cyano-8-(isopropylamino)pyrido[3,4-d]pyrimidin-2-yl)piperidine-3-carboxamide]		> 1000
CC(C)(C)Nc1nc(C(F)F)cc2cnc(N[C@H]3[C@@H]4CNC[C@@H]43)nc12 [Compound C4, N^2-((1R,5S,6s)-3-azabicyclo[3.1.0]hexan-6-yl)-N^8-(tert-butyl)-6-(difluoromethyl)pyrido[3,4-d]pyrimidine-2,8-diamine]	9	400 to 1000
CC(C)Nc1nc(C#N)cc2cnc(N[C@H]3CCNC3)nc12 [Compound 112, (S)-8-(isopropylamino)-2-(pyrrolidin-3-ylamino)pyrido[3,4-d]pyrimidine-6-carbonitrile]	17	400 to 1000
C=Cc1cc2cnc(NC(=O)[C@H]3CCC[C@@H](NC(C)=O)C3)nc2c(NC(C)C)n1 [Compound 10, (1S,3R)-3-acetamido-N-(8-(isopropylamino)-6-vinylpyrido[3,4-d]pyrimidin-2-yl)cyclohexane-1-carboxamide]	46	> 1000
CC(=O)N[C@@H]1CCC[C@H](C(=O)Nc2ncc3cc(C#N)nc(NC(C)C)c3n2)C1 [Compound 3, (1S,3R)-3-acetamido-N-(6-cyano-8-(isopropylamino)pyrido[3,4-d]pyrimidin-2-yl)cyclohexane-1-carboxamide]		> 1000
CC(C)Nc1nc(C#N)cc2cnc(NC3CCCC3N)cc12 (centres unmarked) [Compound 146, 7-((2-aminocyclopentyl)amino)-1-(isopropylamino)-2,6-naphthyridine-3-carbonitrile]	9	> 1000
CC(C)Nc1nc(C#N)cc2cnc(N[C@@H]3CCCNCC3)nc12 [Compound 132, (R)-2-(azepan-4-ylamino)-8-(isopropylamino)pyrido[3,4-d]pyrimidine-6-carbonitrile]	12	400 to 1000
Cc1nc(C#N)cc2cnc(N[C@H]3CCCNC3)cc12 [Compound 196, (S)-1-methyl-7-(piperidin-3-ylamino)-2,6-naphthyridine-3-carbonitrile]		> 1000
CC(=O)N[C@@H]1CCC[C@H](C(=O)Nc2ncc3cc(C(F)F)nc(NC(C)C)c3n2)C1 [Compound 7, (1S,3R)-3-acetamido-N-(6-(difluoromethyl)-8-(isopropylamino)pyrido[3,4-d]pyrimidin-2-yl)cyclohexane-1-carboxamide]	44	> 1000
CC(=O)N[C@@H]1CCC[C@H](C(=O)Nc2cc3c(N4CCOCC4)nc(C#N)cc3cn2)C1 [Compound 21, (1S,3R)-3-acetamido-N-(7-cyano-5-morpholino-2,6-naphthyridin-3-yl)cyclohexane-1-carboxamide]		> 1000
CC(C)Nc1nc(C#N)cc2cnc(N[C@@H]3CCOC3)nc12 [Compound 119, (R)-8-(isopropylamino)-2-((tetrahydrofuran-3-yl)amino)pyrido[3,4-d]pyrimidine-6-carbonitrile]	6	> 1000
CC(C)Nc1nc(C#N)cc2cnc(NC3CCCCC3O)cc12 (centres unmarked) [Compound 143, 7-((2-hydroxycyclohexyl)amino)-1-(isopropylamino)-2,6-naphthyridine-3-carbonitrile]	12	> 1000
CC(C)Nc1nc(C#N)cc2cnc(N[C@@H]3CCCCNC3)nc12 [Compound C5, (R)-2-(azepan-3-ylamino)-8-(isopropylamino)pyrido[3,4-d]pyrimidine-6-carbonitrile]	50	400 to 1000
CC(C)Nc1nc(C#N)cc2cnc(N[C@H]3CCC[C@@H](N)C3)cc12 [Compound 40, 7-(((1S,3R)-3-aminocyclohexyl)amino)-1-(isopropylamino)-2,6-naphthyridine-3-carbonitrile]		400 to 1000
CNc1cc2cnc(NC(=O)[C@H]3CCC[C@@H](NC(C)=O)C3)nc2c(NC(C)C)n1 [Compound 11, (1S,3R)-3-acetamido-N-(8-(isopropylamino)-6-(methylamino)pyrido[3,4-d]pyrimidin-2-yl)cyclohexane-1-carboxamide]		> 1000
CCc1cc2cnc(NC(=O)[C@H]3CCC[C@@H](NC(C)=O)C3)nc2c(NC(C)C)n1 [Compound 9, (1S,3R)-3-acetamido-N-(6-ethyl-8-(isopropylamino)pyrido[3,4-d]pyrimidin-2-yl)cyclohexane-1-carboxamide]		> 1000
CC(=O)N[C@@H]1CCC[C@H](C(=O)Nc2ncc3cc(S(C)(=O)=O)nc(NC(C)C)c3n2)C1 [Compound 5, (1S,3R)-3-acetamido-N-(8-(isopropylamino)-6-(methylsulfonyl)pyrido[3,4-d]pyrimidin-2-yl)cyclohexane-1-carboxamide]		> 1000
